Measurements reported in patent US6630612B2, “5-HT3 receptor assay using transgenic mammal” (University of New Mexico, priority 1997, dated 2003).
“And” between values parts separate entries of the source, which are not always exact repeats. Equal values may be shown once.

Tests used:
5-HT3 receptor [1] = target: T1, 5-HT3 receptor (Mus musculus, UniProt P23979); test: Specific binding with 3H-GR65630 in membranes from various tissues of transgenic and B6SJL/F1 control mice; conditions: Cortex membranes, transgenic mice
T1 construct: cortices and cerebelli were removed and homogenized by hand in ice cold Hepes buffer; from tissue; host or cells: Washed membranes from cortex, cerebellum, liver, lung, heart, spleen, kidney, small intestine, testis and skeletal muscle of transgenic and B6SJL/F1 control mice
T1 sequence (P23979 24-489): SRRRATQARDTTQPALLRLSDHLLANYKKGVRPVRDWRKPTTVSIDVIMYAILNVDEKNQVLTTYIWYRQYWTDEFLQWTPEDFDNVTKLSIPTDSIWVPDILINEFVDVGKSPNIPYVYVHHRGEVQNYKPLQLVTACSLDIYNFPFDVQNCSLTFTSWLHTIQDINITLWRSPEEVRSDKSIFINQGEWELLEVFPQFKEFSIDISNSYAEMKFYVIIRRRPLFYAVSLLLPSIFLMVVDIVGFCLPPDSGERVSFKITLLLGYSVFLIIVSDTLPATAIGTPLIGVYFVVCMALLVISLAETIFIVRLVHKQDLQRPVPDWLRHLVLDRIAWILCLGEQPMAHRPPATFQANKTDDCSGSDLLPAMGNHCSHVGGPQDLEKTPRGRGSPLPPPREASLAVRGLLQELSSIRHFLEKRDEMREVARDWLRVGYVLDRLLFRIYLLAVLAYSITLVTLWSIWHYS
Description: (§1) For homogenate binding studies, cortices and cerebelli were removed and homogenized by hand in ice cold Hepes buffer (50 mM, pH 7.5) and centrifuged at 500 g for 5 minutes at 4° C. Liver, lung, heart, spleen, kidney, small intestines, testes, and skeletal muscle (from hind limb) were homogenized with an Omni tissue chopper. Membranes were pelleted by centrifugation at 20,000 g for 20 minutes at 4° C. and the pellets washed twice before suspension to 3 mg/ml in a buffer containing 145 mM NaCl, 5 mM KCl, 1, mM MgCl2, 1 mM CaCl2, 10 mM glucose, and 10 mM TRIS, pH 7.5. Saturation curves were carried out with 0.0125-25 nM ^3H-GR65630 at 37° C. for 30 minutes with 300 μg total protein. Incubation was terminated by dilution with ×10 volume (5 ml) of ice-cold buffer followed by rapid filtration onto Whatman GF/B filters. Filters were washed twice with 5 ml ice-cold buffer and counted by scintillation counting in EcoLite (ICN) scintillation cocktail. Non-specific binding (NSB) was determined with 0.125-256 μM tropisetron. Displacement binding was carried out the same as saturation binding except with 1 nM ^3H-GR65630 and NSB defined with 10 μM tropisetron. Protein concentrations were determined by Folin phenol reagent (Lowry et al., J. Biol. Chem. 193: 256-275, 1951).

5-HT3 receptor [2] = test: as above; design: species or system mouse
Description: as §1

5-HT3 receptor [3] = target: T1, 5-HT3 receptor; test: Homogenate saturation binding with 3H-GR65630 in cortical membranes of transgenic and B6SJL/F1 control mice
Description: as §1

5-HT3 receptor [4] = test: as above; design: species or system mouse; conditions: cortical membranes, B6SJL/F1 control mice
Description: as §1

[5] = cortical membranes, 5-HT3 transgenic mice

Cc1[nH]cnc1CCC(=O)c1cn(C)c2ccccc12 [^3H-GR65630]
Specific binding (means ± SEM) (5-HT3 receptor [1]): 969.6 ± 190.5 fmol/mg protein
Specific binding (means ± SEM) (5-HT3 receptor [2]; Cortex membranes, B6SJL/F1 control mice): 7.2 ± 2.9 fmol/mg protein
Specific binding (means ± SEM) (5-HT3 receptor [2]; Heart membranes, B6SJL/F1 control mice): 0.25 ± 5.4 fmol/mg protein
Specific binding (means ± SEM) (5-HT3 receptor [2]; Heart membranes, transgenic mice): 3.9 ± 1.8 fmol/mg protein
Specific binding (means ± SEM) (5-HT3 receptor [2]; Kidney membranes, B6SJL/F1 control mice): 3.9 ± 3.1 fmol/mg protein
Specific binding (means ± SEM) (5-HT3 receptor [2]; Kidney membranes, transgenic mice): 16.9 ± 8.0 fmol/mg protein
Specific binding (means ± SEM) (5-HT3 receptor [2]; Lung membranes, transgenic mice): 2.7 ± 4.1 fmol/mg protein
Specific binding (means ± SEM) (5-HT3 receptor [2]; Skeletal muscle membranes, B6SJL/F1 control mice): 2.7 ± 0.4 fmol/mg protein
Specific binding (means ± SEM) (5-HT3 receptor [2]; Skeletal muscle membranes, transgenic mice): 8.0 ± 2.7 fmol/mg protein
Specific binding (means ± SEM) (5-HT3 receptor [2]; Small intestines membranes, B6SJL/F1 control mice): 26.6 ± 11.0 fmol/mg protein
Specific binding (means ± SEM) (5-HT3 receptor [2]; Small intestines membranes, transgenic mice): 26.0 ± 7.7 fmol/mg protein
Specific binding (means ± SEM) (5-HT3 receptor [2]; Spleen membranes, B6SJL/F1 control mice): 1.7 ± 3.9 fmol/mg protein
Specific binding (means ± SEM) (5-HT3 receptor [2]; Spleen membranes, transgenic mice): 8.2 ± 7.2 fmol/mg protein
Bmax (5-HT3 receptor [3]; [5]): 2155 fmol/mg protein and 2155±129 fmol/mg protein
Hill no. (Hill plot slope) (5-HT3 receptor [3]; [5]): 1.0
Kd (5-HT3 receptor [3]; [5]): 1.7 nM
Bmax (5-HT3 receptor [3]; transgenic mice membranes): 2.5 pmol/mg protein
Bmax (5-HT3 receptor [4]): 21 fmol/mg protein and 21±10 fmol/mg protein
Kd (5-HT3 receptor [4]; n=3 (FIG. 2 legend, unit inferred)): 1.6 ± 2.3 nM
